{"source": "patent US11666551B2", "about": "“Agent for reducing amount of amyloid β protein” (FUJIFILM Toyama Chemical Co., Ltd., priority 2017, dated 2023)", "format_in_all_cases": "in vivo, mild to moderate AD patients", "key": {"[1]": {"test_system": "Aβ-38", "test": "Phase II placebo-controlled trial, cerebrospinal fluid biomarker Aβ-38", "conditions": "for Change in Aβ-38 in CSF at week 52, difference from placebo group: analysis of covariance", "text": "[The procedure below names another target; the source lists this target under the same test.] (§1) Maleate of Compound A was used as the test compound. • Test Example 1 Multicenter randomized double-blind phase II placebo-controlled trial for assessing effectiveness and safety of Compound A in mild to moderate AD patients Subject (selection criteria): Patients were screened in a period from 42 days before treatment assignment to the assignment based on the following selection criteria. • Patients who were probable AD and are 55 years old or older and 85 years old or younger at the time of obtaining consent of screening. • Patients with an MMSE score of 12 to 22 at the time of screening • Patients with a Modified Hachinski Ischemia Scale score of 4 or less • Patients who have been treated with a donepezil hydrochloride or rivastigmine transdermal system for at least 4 months before the baseline and with a stable dose thereof for 3 months before the baseline. • In the case of patients who have received memantine in addition to being treated with a donepezil hydrochloride or rivastigmine transdermal system, patients who have been treated with memantine for at least 4 months before the baseline and with a stable dose thereof for 3 months before the baseline. • Patients whose brain MRI or CT results match AD at the time of screening • Organization of groups: Patients matched (484 patients) were randomly divided into the following 3 groups and the trial was started. • (1) High dose group: 224 mg of a test compound (160 mg in terms of Compound A) was orally administered once a day for 4 weeks and then 448 mg of a test compound (320 mg in terms of Compound A) was orally administered once a day for 48 weeks (158 patients) • (2) Low dose group: 224 mg of a test compound (160 mg in terms of Compound A) was orally administered once a day for 52 weeks (166 patients) • (3) Placebo group: placebo was orally administered once a day for 52 weeks (158 patients) Method of assessment: Cerebrospinal Fluid Biomarker\n(§2) Cerebrospinal fluid was collected by lumber puncture from subjects at baseline (within 2 weeks before the first day of administration of investigational drug) and after 52 weeks (within 2 weeks before week 52), and divided into 9-ml aliquots in polyethylene tubes and stored at −80° C. The AP-42 value in the cerebrospinal fluid was measured by sandwich ELIZA which has been designed for measurement of Aβ including 1 amino acid and 42 amino acids.\n(§3) Change in cerebrospinal fluid (CSF) biomarkers at week 52 from the baseline was compared by analysis of covariance between a high dose group and a placebo group, and between a low dose group and the placebo group. For models, the baseline of cerebrospinal fluid (CSF) biomarkers was included as a covariate and the significance level was 5%."}, "[2]": {"test_system": "Aβ-40", "test": "Phase II placebo-controlled trial, cerebrospinal fluid biomarker Aβ-40", "conditions": "for Change in Aβ-40 in CSF at week 52, difference from placebo group: analysis of covariance", "text": "[The procedure below names another target; the source lists this target under the same test.] as §1, §2, §3"}, "[3]": {"test_system": "Aβ-42", "test": "Phase II placebo-controlled trial, cerebrospinal fluid biomarker Aβ-42", "conditions": "for Change in Aβ-42 in CSF at week 52, difference from placebo group: analysis of covariance", "text": "as §1, §2, §3"}, "[4]": {"test_system": "Aβ", "test": "Phase II placebo-controlled trial, concentration of Aβ in the cerebrospinal fluid (overall statement)", "conditions": "Compound A groups (high and low dose) vs placebo group", "protocol": "[…]\nCerebrospinal fluid was collected by lumber puncture from subjects at baseline (within 2 weeks before the first day of administration of investigational drug) and after 52 weeks (within 2 weeks before week 52), and divided into 9-ml aliquots in polyethylene tubes and stored at −80° C. The AP-42 value in the cerebrospinal fluid was measured by sandwich ELIZA which has been designed for measurement of Aβ including 1 amino acid and 42 amino acids. […]"}, "[5]": {"conditions": "High dose group (160 mg then 320 mg in terms of Compound A, oral, once a day)"}, "[6]": {"conditions": "High dose group: 160 mg in terms of Compound A orally once a day for 4 weeks, then 320 mg for 48 weeks, 24 cases"}, "[7]": {"conditions": "Low dose group (160 mg in terms of Compound A, oral, once a day, 52 weeks)"}, "[8]": {"conditions": "Low dose group: 160 mg in terms of Compound A orally once a day for 52 weeks, 17 cases"}}, "data": [{"smiles": "OC1CN(CCCOCCc2ccc3sccc3c2)C1", "note": "[Compound A, 1-(3-(2-(1-benzothiophen-5-yl)ethoxy)propyl)azetidin-3-ol]", "values": [{"measurement": "Change in Aβ-38 in CSF at week 52, difference from placebo group", "setting": "[1]; [5]", "value": 525.66, "unit": "pg/mL"}, {"measurement": "Change in concentration of Aβ-38 in CSF at week 52 from the baseline, least square means", "setting": "[1]; [6]", "value": 178.64, "unit": "pg/mL"}, {"measurement": "Change in Aβ-38 in CSF at week 52, difference from placebo group", "setting": "[1]; [7]", "value": 127.43, "unit": "pg/mL"}, {"measurement": "Change in concentration of Aβ-38 in CSF at week 52 from the baseline, least square means", "setting": "[1]; [8]", "value": -219.58, "unit": "pg/mL"}, {"measurement": "Change in Aβ-40 in CSF at week 52, difference from placebo group", "setting": "[2]; [5]", "value": 1206.87, "unit": "pg/mL"}, {"measurement": "Change in concentration of Aβ-40 in CSF at week 52 from the baseline, least square means", "setting": "[2]; [6]", "value": 290.84, "unit": "pg/mL"}, {"measurement": "Change in Aβ-40 in CSF at week 52, difference from placebo group", "setting": "[2]; [7]", "value": 75.71, "unit": "pg/mL"}, {"measurement": "Change in concentration of Aβ-40 in CSF at week 52 from the baseline, least square means", "setting": "[2]; [8]", "value": -840.32, "unit": "pg/mL"}, {"measurement": "Change in Aβ-42 in CSF at week 52, difference from placebo group", "setting": "[3]; [5]", "value": 32.90, "unit": "pg/mL"}, {"measurement": "Change in concentration of Aβ-42 in CSF at week 52 from the baseline, least square means", "setting": "[3]; [6]", "value": 11.55, "unit": "pg/mL"}, {"measurement": "Change in Aβ-42 in CSF at week 52, difference from placebo group", "setting": "[3]; [7]", "value": 11.65, "unit": "pg/mL"}, {"measurement": "Change in concentration of Aβ-42 in CSF at week 52 from the baseline, least square means", "setting": "[3]; [8]", "value": -9.70, "unit": "pg/mL"}, {"measurement": "Change in the concentration of Aβ in the cerebrospinal fluid at week 52 from the baseline, compared to the placebo group", "setting": "[4]", "value": "tended to be increased in a dose dependent manner"}]}]}
